The target in one test is T1, M1 muscarinic receptor (Homo sapiens, UniProt P11229).
T1 sequence (P11229 1-460): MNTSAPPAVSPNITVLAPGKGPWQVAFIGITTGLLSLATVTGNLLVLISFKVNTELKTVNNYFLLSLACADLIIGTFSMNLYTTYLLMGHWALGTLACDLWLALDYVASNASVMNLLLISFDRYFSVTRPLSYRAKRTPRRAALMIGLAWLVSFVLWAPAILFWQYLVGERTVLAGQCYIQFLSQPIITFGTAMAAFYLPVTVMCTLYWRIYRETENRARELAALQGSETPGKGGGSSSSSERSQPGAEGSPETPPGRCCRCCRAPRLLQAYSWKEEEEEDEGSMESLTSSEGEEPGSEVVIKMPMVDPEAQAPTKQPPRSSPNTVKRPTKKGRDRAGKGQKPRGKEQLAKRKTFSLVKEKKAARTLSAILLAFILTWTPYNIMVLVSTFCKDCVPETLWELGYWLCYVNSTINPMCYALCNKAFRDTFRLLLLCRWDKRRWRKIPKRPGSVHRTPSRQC
As to the kind of experiment: Muscarinic receptor antagonism assay (GeneBLAzer M1-NFAT-bla CHO-K1 cells). As to conditions: Compound 1 at 1 μM, TASIN-1 100 nM; concentration maximally effective for oligodendrocyte formation. The test is classed as cell-based.

Test [1] deals with oligodendrocyte progenitor cells (OPCs), OPC-5. As to the kind of experiment: Differentiation of OPCs to MBP+ oligodendrocytes (in vitro phenotypic screening, high-content imaging). The test is classed as cell-based, mouse. As to the method: To rigorously assess effects of small molecule and genetic treatments on OPCs, all treatments were assayed in two batches of epiblast stem cell-derived OPCs, and key results were confirmed using mouse primary OPCs. OPCs were generated from two separate EpiSC lines, EpiSC5 (giving rise to OPC-5 OPCs) and 12901 (giving rise to OPC-1 OPCs). EpiSC-derived OPCs were obtained using in vitro differentiation protocols and culture conditions described previously. To ensure uniformity throughout all in vitro screening experiments, EpiSC-derived OPCs were sorted to purity by fluorescence activated cell sorting at passage five with conjugated CD 140a-APC (eBioscience, 17-1401; 1:80) and NG2-AF488 (Millipore, AB5320A4; 1:100) antibodies. Sorted batches of OPCs were expanded and frozen down in aliquots. OPCs were thawed into growth conditions for one passage before use in further assays. Cultures were regularly tested and shown to be mycoplasma free.
EpiSC-derived OPCs were grown and expanded in poly-ornithine (PO) and laminin-coated flasks with growth medium (DMEM/F12 supplemented with N2-MAX (R&D Systems), B-27 (ThermoFisher), GlutaMax (Gibco), FGF2 ([…], R&D systems, 233-FB-025) and PDGF-AA ([…], R&D systems, 233-AA-050) before harvesting for plating. The cells were seeded onto poly-D-lysine 96-well CellCarrier or CellCarrierUltra plates (PerkinElmer) coated with laminin (Sigma, L2020; 15 μg/ml) using multi-channel pipet. For the experiment, 800,000 cells/mL stock in differentiation medium (DMEM/F12 supplemented with N2-MAX and B-27) was prepared and stored on ice for 2 h. Then, 40,000 cells were seeded per well in differentiation medium and allowed to attach for 30 min before addition of drug. For dose-response testing of all molecules except sterols, a 1000× compound stock in dimethyl sulphoxide (DMSO) was added to assay plates with 0.1 μL solid pin multi-blot replicators (V & P Scientific; VP 409), resulting in a final primary screening concentration of 1×. Cells were incubated under standard conditions (37° C., 5% CO2) for 3 days and fixed with 4% paraformaldehyde (PFA) in phosphate buffered saline (PBS) for 20 min. Fixed plates were washed with PBS (200 μL per well) twice, permeabilized with 0.1% Triton X-100 and blocked with 10% donkey serum (v/v) in PBS for 40 min. Then, cells were labelled with MBP antibodies (Abcam, ab7349; 1:200) for 16 h at 4° C. followed by detection with Alexa Fluor conjugated secondary antibodies (1:500) for 45 min. Nuclei were visualized by DAPI staining (Sigma; 1 μg/ml). During washing steps, PBS was added using a multi-channel pipet and aspiration was performed using Biotek EL406 washer dispenser (Biotek) equipped with a 96-well aspiration manifold.
Plates were imaged on the Operetta High Content Imaging and Analysis system (PerkinElmer) and a set of 6 fields captured from each well resulting in an average of 1200 cells being scored per well. Analysis (PerkinElmer Harmony and Columbus software) began by identifying intact nuclei stained by DAPI; that is, those traced nuclei that were larger than 300 μm2 in surface area. Each traced nucleus region was then expanded by 50% and cross-referenced with the […] (MBP) stain to identify oligodendrocyte nuclei, and from this the percentage of oligodendrocytes was calculated.

Molecules are shown by their SMILES. Entries after “also recorded” stand apart in the source; their conditions may differ.

Method for M1 muscarinic receptor: GeneBLAzer M1-NFAT-bla CHO-K1 cells (or M3- or M5-NFAT-bla CHO-K1 cells)(ThermoFisher) were thawed into Assay Media (DMEM, 10% dialyzed FBS, 25 mM HEPES pH 7.3, 0.1 mM NEAA). 10,000 cells/well were added to a 384-well TC treated assay plate and incubated 16-24 h at 37° C. 4 μl of a 10× stock of antimuscarinic molecules was added to the plate and incubated 30 min. 4 μl of 10× control agonist Carbachol at the pre-determined EC80 concentration was added to wells containing antimuscarinic molecules. The plate was incubated 5 h and 8 μl of 1 μM Substrate+Solution D Loading Solution was added to each well and the plate was incubated 2 h at room temperature before reading on a fluorescence plate reader.

Consider `c1ccc(-c2ccc(CN3CCCCCCC3)cc2)cc1` [Compound 1], for which, at M1 muscarinic receptor, the “effect in cell-based assay for the M1 muscarinic receptor” value is “little affinity”. In addition, the activation at 0.03 µM in test [1] (Mus musculus, Oligodendrocyte progenitor cell, 0.03 μM, 72 h treatment, read-out: % enhancement of MBP+ oligodendrocyte generation at 0.03 μM concentration) lay within 20 to 30%. For the same molecule, the activation at 0.1 µM in test [1] (Mus musculus, Oligodendrocyte progenitor cell, 0.1 μM, 72 h treatment, read-out: % enhancement of MBP+ oligodendrocyte generation at 0.1 μM concentration) is greater than 40%. Moreover, the activation at 0.3 µM in test [1] (Mus musculus, Oligodendrocyte progenitor cell, 0.3 μM, 72 h treatment, read-out: % enhancement of MBP+ oligodendrocyte generation at 0.3 μM concentration) is greater than 40%. The activation at 1 µM in test [1] (Mus musculus, Oligodendrocyte progenitor cell, 1 μM, 72 h treatment, read-out: % enhancement of MBP+ oligodendrocyte generation at 1 μM concentration) was greater than 40%. For the same molecule, in test [1] (OPC-5, FIGS. 2a-2c), the “enhancement of oligodendrocyte formation (in words)” value is listed as “near maximal effects observed at 110 nM; also recorded: near maximal effects on oligodendrocyte formation at 110 nM”.

For the origin of these results see patent US12048678B2, “Compounds for treating myelin related disorders” (Case Western Reserve University, priority 2018, dated 2024).
